From ChEMBL document CHEMBL4425093, “Picrasidine N Is a Subtype-Selective PPARβ/δ Agonist” (J Nat Prod, 2016)
Activity calls are given as the source filed them. No cut-off for these calls is given here.

Legend:
[1] = target: T1, Peroxisome proliferator-activated receptor delta (Homo sapiens) (UniProt Q03181); assay: Agonist activity at GAL4-DBD fused human PPARbeta/delta-LBD (136 to 441 residues) expressed in human HepG2 cells at 10 uM by luciferase reporter gene based mammalian one hybrid assay; type: cell-based
T1 sequence (whole entry): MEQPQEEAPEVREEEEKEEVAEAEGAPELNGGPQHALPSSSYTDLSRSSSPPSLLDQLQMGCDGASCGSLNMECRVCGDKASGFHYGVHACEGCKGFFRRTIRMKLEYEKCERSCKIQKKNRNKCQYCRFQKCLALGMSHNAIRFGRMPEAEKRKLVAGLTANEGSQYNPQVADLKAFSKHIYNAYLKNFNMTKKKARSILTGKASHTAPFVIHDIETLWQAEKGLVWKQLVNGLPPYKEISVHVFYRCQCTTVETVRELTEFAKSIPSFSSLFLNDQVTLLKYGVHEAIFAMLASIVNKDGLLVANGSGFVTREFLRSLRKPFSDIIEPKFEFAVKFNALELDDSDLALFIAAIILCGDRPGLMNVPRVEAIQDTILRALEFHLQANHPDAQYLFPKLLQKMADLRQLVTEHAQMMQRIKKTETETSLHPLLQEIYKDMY

[2] = target: T2, Peroxisome proliferator-activated receptor alpha (Homo sapiens) (UniProt Q07869); assay: Agonist activity at GAL4-DBD fused human PPARalpha-LBD (159 to 468 residues) expressed in human HepG2 cells at 0.1 to 20 uM after 24 hrs by dual luciferase reporter gene assay; type: cell-based
T2 sequence (whole entry): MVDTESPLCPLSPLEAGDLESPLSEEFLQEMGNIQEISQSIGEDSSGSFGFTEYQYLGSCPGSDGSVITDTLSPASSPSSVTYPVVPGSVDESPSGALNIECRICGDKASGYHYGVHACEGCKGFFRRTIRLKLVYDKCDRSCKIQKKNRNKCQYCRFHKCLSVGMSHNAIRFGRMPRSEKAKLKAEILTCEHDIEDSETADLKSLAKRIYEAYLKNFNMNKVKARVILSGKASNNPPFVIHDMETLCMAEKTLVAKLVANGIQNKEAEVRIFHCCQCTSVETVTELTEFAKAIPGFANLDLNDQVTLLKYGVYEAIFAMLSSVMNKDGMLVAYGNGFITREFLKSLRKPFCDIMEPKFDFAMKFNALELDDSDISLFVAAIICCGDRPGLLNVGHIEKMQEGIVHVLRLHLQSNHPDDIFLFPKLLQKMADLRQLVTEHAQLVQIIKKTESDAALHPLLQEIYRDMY

[3] = test system: HepG2; assay: Upregulation of ANGPTL4 mRNA expression in human HepG2 cells transfected with PPARbeta/delta siRNA at 10 uM after 24 hrs by qRT-PCR method; type: functional, cell-based
[4] = target: T1, Peroxisome proliferator-activated receptor delta (Homo sapiens); assay: Agonist activity at PPARbeta/delta in human HepG2 cells assessed as induction of ANGPTL4 mRNA expression incubated for 24 hrs by qRT-PCR method; type: cell-based
[5] = target: T1, Peroxisome proliferator-activated receptor delta (Homo sapiens); assay: Agonist activity at GAL4-DBD fused human PPARbeta/delta-LBD (136 to 441 residues) expressed in human HepG2 cells after 24 hrs by dual luciferase reporter gene assay; type: cell-based
[6] = target: T1, Peroxisome proliferator-activated receptor delta (Homo sapiens); assay: Agonist activity PPARbeta/delta in human PC3 cells assessed as induction of ANGPTL4 mRNA expression at 10 uM incubated for 24 hrs by qRT-PCR method; type: cell-based
[7] = target: T1, Peroxisome proliferator-activated receptor delta (Homo sapiens); assay: Agonist activity PPARbeta/delta in human MCF7 cells assessed as induction of ANGPTL4 mRNA expression at 10 uM incubated for 24 hrs by qRT-PCR method; type: cell-based
[8] = target: T1, Peroxisome proliferator-activated receptor delta (Homo sapiens); assay: Agonist activity at full length human N-terminal Myc-tagged PPARbeta/delta expressed in human HepG2 cells coexpressing RXRalpha assessed as transcriptional activation of PPRE incubated for 24 hrs by dual luciferase reporter gene assay; type: cell-based
[9] = target: T3, Peroxisome proliferator-activated receptor gamma (Homo sapiens) (UniProt P37231); assay: Agonist activity at GAL4-DBD fused human PPARgamma-LBD (157 to 475 residues) expressed in human HepG2 cells at 0.1 to 20 uM after 24 hrs by dual luciferase reporter gene assay; type: cell-based
T3 sequence (whole entry): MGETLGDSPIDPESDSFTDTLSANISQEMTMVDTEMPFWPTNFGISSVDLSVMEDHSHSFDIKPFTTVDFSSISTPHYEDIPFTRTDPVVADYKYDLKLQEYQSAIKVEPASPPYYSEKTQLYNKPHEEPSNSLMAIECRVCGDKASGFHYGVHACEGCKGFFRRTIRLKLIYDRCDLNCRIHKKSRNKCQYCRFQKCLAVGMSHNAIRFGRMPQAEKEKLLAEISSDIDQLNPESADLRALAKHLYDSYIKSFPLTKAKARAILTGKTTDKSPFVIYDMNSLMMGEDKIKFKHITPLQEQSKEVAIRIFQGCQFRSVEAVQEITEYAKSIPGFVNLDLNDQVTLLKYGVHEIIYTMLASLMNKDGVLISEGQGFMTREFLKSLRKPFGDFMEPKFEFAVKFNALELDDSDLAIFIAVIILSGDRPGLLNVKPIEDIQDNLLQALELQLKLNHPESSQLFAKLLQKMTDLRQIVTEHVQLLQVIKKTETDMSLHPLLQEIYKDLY

[10] = test system: HepG2; assay: Induction of PPRE transcriptional activation in human HepG2 cells at 10 uM incubated for 24 hrs by dual luciferase reporter gene assay; type: functional, cell-based

COc1cccc2c1[nH]c1c(CCn3ccc4c5n(c(=O)c(=O)cc3-5)c3ccccc43)ncc(OC)c12
Activity [1]: inactive

COc1cnc(CCn2ccc3c4n(c(=O)c(=O)cc2-4)c2ccccc32)c2c1c1ccccc1n2OC
Activity [2]: inactive | Activity [3]: inactive | Activity [4]: Dose-dependent effect | Activity [5]: Dose-dependent effect | Activity [6]: inactive | Activity [7]: Active | Activity [8]: Dose-dependent effect | Activity [9]: Active | Activity [10]: Active

Cc1cc(SCc2sc(-c3ccc(C(F)(F)F)c(F)c3)nc2C)ccc1OCC(=O)O
Activity [3]: inactive | Activity [10]: Active

CCCCn1ccc2c3n(c(=O)c(=O)cc1-3)c1ccccc21
Activity [1]: inactive
